Data from ChEMBL document CHEMBL1151349, “The antineoplastic quassinoids of Simaba cuspidata spruce and Ailanthus grandis Prain” (1980).
Calls of active or inactive are those of the source. No cut-off for these calls is given here.

Assays:
[1] = system: P388; assay: Antineoplastic activity against mouse P388 cells; type: functional
[2] = system: P388; assay: In vivo antineoplastic activity against mouse P388 cells assessed as increase in survival time at 0.08 to 0.60 mg/kg; type: functional; details: dose mg/kg 0.08-0.60
[3] = system: P388; assay: In vivo antineoplastic activity against mouse P388 cells upto 2.0 mg/kg; type: functional, organism-based; set-up: dose 2 mg/kg

SMILES | GI [1] | Activity [2] | Activity [3] | Activity [1]
C/C=C(/C)C(=O)O[C@@H]1[C@H]2C(C)=CC(=O)[C@@H](O)[C@]2(C)[C@H]2[C@@]3(O)OC[C@@]24[C@@H]1OC(=O)C[C@H]4[C@@H](C)[C@H]3O | <0.01 µg/mL | 34% | – | –
C/C=C(/C)C(=O)O[C@@H]1[C@H]2C(C)=C[C@H](O)[C@@H](O)[C@]2(C)[C@H]2[C@@]3(O)OC[C@@]24[C@@H]1OC(=O)C[C@H]4[C@@H](C)[C@H]3O | 0.24 µg/mL | – | inactive | –
CC[C@@](C)(OC(C)=O)C(=O)O[C@H]1C(=O)O[C@@H]2C[C@H]3C(C)=C[C@H](O)[C@@H](O)[C@]3(C)[C@H]3[C@@]4(O)OC[C@]32[C@@H]1[C@@H](C)[C@H]4O | – | – | – | inactive
